Format in all cases: cell-based
Assay [1] deals with Staphylococcus aureus IM149. Kind of assay: MIC by serial dilution, Strain A. Particulars: for MIC: range between last concentration with growth and first without growth. The method, then:
(§1) The MICs were calculated using the serial dilution method, and are expressed as the range between the last concentration at which the bacterial strain grows and the first concentration at which the strain tested no longer grows.

The subject of a further assay is Escherichia Coli NK12. Kind of assay: MIC by serial dilution, Strain D. To be noted: COLINK12, range between last concentration with growth and first without growth. The method, then:
as §1

Assay [2] has as its system Bacillus Subtilis ATCC 6633. Put plainly: MIC by serial dilution, Strain B. To be noted: ATCC6633, range between last concentration with growth and first without growth. The method, then:
as §1

Assay [3] concerns Escherichia Coli ATCC 25922. Kind of assay: MIC by serial dilution, Strain C. To be noted: ATCC25922, range between last concentration with growth and first without growth. The method, then: as §1
Assay [4] deals with Gram-positive and Gram-negative strains. Put plainly: Antibacterial activity, overall statements on the MIC test. The method, then:
as §1

The structures appear in SMILES notation. In brackets after ≈: the same amount, converted by molar mass.

With `CO[C@H]1/C=C/O[C@@]2(C)Oc3c(C)c(O)c4c(O)c(c5c(nc6cc(CO)ccn65)c4c3C2=O)NC(=O)/C(C)=C\C=C\[C@H](C)[C@H](O)[C@@H](C)[C@@H](O)[C@@H](C)[C@H](OC(C)=O)[C@@H]1C` [Example 1, 4′-methylol-4-desoxypyrido[1′,2′-1,2]imidazo[5,4-c]rifamycin SV], the MIC (in general, the lowest concentration that inhibits growth of the organism) in assay [1] lay within 8 to 16 µg/mL (≈ 9.98 to 20 µM); in the assay on Escherichia Coli NK12, 4 to 8 µg/mL (≈ 4.99 to 9.98 µM); in assay [2], 2 to 4 µg/mL (≈ 2.49 to 4.99 µM); in assay [3], 8 to 16 µg/mL (≈ 9.98 to 20 µM).

For the molecule `CO[C@H]1/C=C/O[C@@]2(C)Oc3c(C)c(O)c4c(O)c(c5c(nc6cc(C=O)ccn65)c4c3C2=O)NC(=O)/C(C)=C\C=C\[C@H](C)[C@H](O)[C@@H](C)[C@@H](O)[C@@H](C)[C@H](OC(C)=O)[C@@H]1C` [Example 2, 4′-formyl-4-desoxypyrido[1′,2′-1,2]imidazo[5,4-c]rifamycin SV], the MIC (in assay [1]; in the assay on Escherichia Coli NK12; in assay [2]; in assay [3]) was more than 64 µg/mL each time.

On to `CO[C@H]1/C=C/O[C@@]2(C)Oc3c(C)c(O)c4c(O)c(c5c(nc6cc(/C=N/N7CCCCC7)ccn65)c4c3C2=O)NC(=O)/C(C)=C\C=C\[C@H](C)[C@H](O)[C@@H](C)[C@@H](O)[C@@H](C)[C@H](OC(C)=O)[C@@H]1C` [Example 4, 4′-[(1-piperidinyl)iminomethyl]-4-desoxypyrido[1′,2′-1,2]imidazo[5,4-c]rifamycin SV], for which the MIC in assay [1] lay in the range of 0.03 to 0.06 µg/mL (≈ 0.034 to 0.068 µM); in the assay with Escherichia Coli NK12, 8 to 16 µg/mL (≈ 9.07 to 18.1 µM); in assay [2] it was 0.062 to 0.125 µg/mL (≈ 0.0703 to 0.142 µM); in assay [3] it was 4 to 8 µg/mL (≈ 4.54 to 9.07 µM).

As to `CO[C@H]1/C=C/O[C@@]2(C)Oc3c(C)c(O)c4c(O)c(c5c(nc6cc(/C=N/N(C)C)ccn65)c4c3C2=O)NC(=O)/C(C)=C\C=C\[C@H](C)[C@H](O)[C@@H](C)[C@@H](O)[C@@H](C)[C@H](OC(C)=O)[C@@H]1C` [Example 5, 4′-[(N,N-dimethylamino)iminomethyl]-4-desoxypyrido[1′,2′-1,2]imidazo[5,4-c]rifamycin SV], the MIC in assay [1] was 0.03 to 0.06 µg/mL (≈ 0.0356 to 0.0713 µM); against Escherichia Coli NK12, 32 to 64 µg/mL (≈ 38 to 76 µM); in assay [2], 0.062 to 0.125 µg/mL (≈ 0.0736 to 0.148 µM); in assay [3] it was 32 to 64 µg/mL (≈ 38 to 76 µM).

As for `CO[C@H]1/C=C/O[C@@]2(C)Oc3c(C)c(O)c4c(O)c(c5c(nc6cc(/C=N/NC(=O)c7ccncc7)ccn65)c4c3C2=O)NC(=O)/C(C)=C\C=C\[C@H](C)[C@H](O)[C@@H](C)[C@@H](O)[C@@H](C)[C@H](OC(C)=O)[C@@H]1C` [Example 6, 4′-[(4-carboxyamidopyridyl)iminomethyl]-4-desoxypyrido[1′,2′-1,2]imidazo[5,4-c]rifamycin SV], the MIC in assay [1] was more than 64 µg/mL; with Escherichia Coli NK12, 32 to 64 µg/mL (≈ 34.8 to 69.6 µM); in assay [2] it was 8 to 16 µg/mL (≈ 8.71 to 17.4 µM); in assay [3], more than 64 µg/mL.

`CO[C@H]1/C=C/O[C@@]2(C)Oc3c(C)c(O)c4c(O)c(c5c(nc6ccc(/C=N/N(C)C)cn65)c4c3C2=O)NC(=O)/C(C)=C\C=C\[C@H](C)[C@H](O)[C@@H](C)[C@@H](O)[C@@H](C)[C@H](OC(C)=O)[C@@H]1C` [Example 7, 5′-[(N,N-dimethylamino)iminomethyl]-4-desoxypyrido[1′,2′-1,2]imidazo[5,4-c]rifamycin SV]: the MIC in assay [1] was 0.03 to 0.06 µg/mL (≈ 0.0356 to 0.0713 µM); with Escherichia Coli NK12 it was 32 to 64 µg/mL (≈ 38 to 76 µM); in assay [2], 0.062 to 0.125 µg/mL (≈ 0.0736 to 0.148 µM); in assay [3], 32 to 64 µg/mL (≈ 38 to 76 µM).

Take `CO[C@H]1/C=C/O[C@@]2(C)Oc3c(C)c(O)c4c(O)c(c5c(nc6ccc(/C=N/N7CCCCC7)cn65)c4c3C2=O)NC(=O)/C(C)=C\C=C\[C@H](C)[C@H](O)[C@@H](C)[C@@H](O)[C@@H](C)[C@H](OC(C)=O)[C@@H]1C` [Example 8, 5′-[(1-piperidinyl)iminomethyl]-4-desoxypyrido[1′,2′-1,2]imidazo[5,4-c]rifamycin SV]: the minimal inhibitory concentration (MIC) in assay [1] is 0.03 to 0.06 µg/mL (≈ 0.034 to 0.068 µM); against Escherichia Coli NK12, 8 to 16 µg/mL (≈ 9.07 to 18.1 µM); in assay [2] it was 0.062 to 0.125 µg/mL (≈ 0.0703 to 0.142 µM); in assay [3], 4 to 8 µg/mL (≈ 4.54 to 9.07 µM).

As for `CO[C@H]1/C=C/O[C@@]2(C)Oc3c(C)c(O)c4c(O)c(c5c(nc6ccc(/C=N/N7CCCCC7)cn65)c4c3C2=O)NC(=O)/C(C)=C\C=C\[C@H](C)[C@H](O)[C@@H](C)[C@@H](O)[C@@H](C)[C@H](O)[C@@H]1C` [Example 11, 25-desacetyl-5′-[(1-piperidinyl)iminomethyl]-4-desoxypyrido[1′,2′-1,2]imidazo[5,4-c]rifamycin SV], the MIC fell in the range of 8 to 16 µg/mL (≈ 9.52 to 19 µM) in assay [1], 32 to 64 µg/mL (≈ 38.1 to 76.2 µM) with Escherichia Coli NK12, 4 to 8 µg/mL (≈ 4.76 to 9.52 µM) in assay [2] and 32 to 64 µg/mL (≈ 38.1 to 76.2 µM) in assay [3].

Turning to `CO[C@H]1/C=C/O[C@@]2(C)Oc3c(C)c(O)c4c(O)c(c5c(nc6ccc(/C=N/N(C)C)cn65)c4c3C2=O)NC(=O)/C(C)=C\C=C\[C@H](C)[C@H](O)[C@@H](C)[C@@H](O)[C@@H](C)[C@H](O)[C@@H]1C` [Example 12, 25-desacetyl-5′-[(N,N-dimethylamino)iminomethyl]-4-desoxypyrido[1′,2′-1,2]imidazo[5,4-c]rifamycin SV], the MIC in assay [1] was 8 to 16 µg/mL (≈ 10 to 20 µM); in the assay on Escherichia Coli NK12, more than 64 µg/mL; in assay [2], 4 to 8 µg/mL (≈ 5 to 10 µM); in assay [3], more than 64 µg/mL.

Take `CO/N=C/c1ccn2c(c1)nc1c3c4c5c(C)c(O)c3c(O)c(c12)NC(=O)/C(C)=C\C=C\[C@H](C)[C@H](O)[C@@H](C)[C@@H](O)[C@@H](C)[C@H](OC(C)=O)[C@H](C)[C@@H](OC)/C=C/O[C@@](C)(O5)C4=O` [Example 13, 4′-(N-methoxy)-iminomethyl-4-desoxypyrido[1′,2′-1,2]imidazo[5,4-c]rifamycin SV]: the “MIC against strain A compared with RFX” value in assay [1] is on record as “lower than RFX”. Further, the minimal inhibitory concentration (MIC) is less than 0.015 µg/mL in assay [1], 8 to 16 µg/mL (≈ 9.65 to 19.3 µM) in the assay with Escherichia Coli NK12, less than 0.015 µg/mL in assay [2] and 8 to 16 µg/mL (≈ 9.65 to 19.3 µM) in assay [3]. For the same molecule, the “antibacterial activity (in words)” value in assay [4] is reported as “fully comparable to that of RFX”.

For the molecule `CO[C@H]1/C=C/O[C@@]2(C)Oc3c(C)c(O)c4c(O)c(c5c(nc6cc(/C=N/C(C)C)ccn65)c4c3C2=O)NC(=O)/C(C)=C\C=C\[C@H](C)[C@H](O)[C@@H](C)[C@@H](O)[C@@H](C)[C@H](OC(C)=O)[C@@H]1C` [Example 14], in assay [1], the “MIC against strain A compared with RFX” value is “lower than RFX”. Moreover, the MIC in assay [1] lay in the range of 0.03 to 0.06 µg/mL (≈ 0.0357 to 0.0713 µM); with Escherichia Coli NK12 it was 8 to 16 µg/mL (≈ 9.51 to 19 µM); in assay [2], 8 to 16 µg/mL (≈ 9.51 to 19 µM); in assay [3], 8 to 16 µg/mL (≈ 9.51 to 19 µM). For the same molecule, in assay [4], the “antibacterial activity (in words)” value was “fully comparable to that of RFX”.

Consider `CO[C@H]1/C=C/O[C@@]2(C)Oc3c(C)c(O)c4c(O)c(c5c(nc6cc(/C=N/N7CCOCC7)ccn65)c4c3C2=O)NC(=O)/C(C)=C\C=C\[C@H](C)[C@H](O)[C@@H](C)[C@@H](O)[C@@H](C)[C@H](OC(C)=O)[C@@H]1C` [Example 15], for which the “MIC against strain A compared with RFX” value in assay [1] is on record as “lower than RFX”. Also, the MIC in assay [1] is less than 0.015 µg/mL; in the assay on Escherichia Coli NK12, 4 to 8 µg/mL (≈ 4.52 to 9.05 µM); in assay [2], 8 to 16 µg/mL (≈ 9.05 to 18.1 µM); in assay [3], 8 to 16 µg/mL (≈ 9.05 to 18.1 µM). Besides, the “antibacterial activity (in words)” value in assay [4] is given as “fully comparable to that of RFX”.

These data come from patent US11028086B2, “Pyrido-imidazo rifamycins” (Biofer S.p.A., priority 2017, dated 2021).
